Two molecules from patent US20090312575A1, “Process For Preparing A Benzoylbenzeneacetamide Derivative” (Medichem, S.A., priority 2008, published 2009) can be followed below.

≈ marks a conversion by molar mass, not a printed value. Like-named read-outs stand apart in the source and are kept apart here.

Data set [1] can be described thus: polymorphic form after one year storage (XRD and IR). The note with it: one year at room temperature and ambient atmosphere conditions. Type of data set: physicochemical. An excerpt: X-ray Powder Diffraction (XRD). The XRD diffractograms were obtained using a RX SIEMENS D5000 diffractometer with a vertical goniometer, a copper anodic tube, and radiation CuKα, λ=1, 54056 Á.
Infrared Spectra (IR). Fourier transform IR spectra were acquired on a Thermo Nicolet Nexus spectrometer, and polymorphs were characterized in potassium bromide pellets.
Analytical data: XRD: Form A, see FIG. 1; IR: see FIG. 2; DSC: see FIG. 7. Analytical data of the compound after one year at room temperature and ambient atmosphere conditions (XRD and IR): Form A.
Analytical data: XRD: Form B, see FIG. 3; DSC: see FIG. 8. Analytical data of the compound after one year at room temperature and ambient atmosphere conditions (XRD and IR): Form B.

A short description of data set [2]: solubility profile at room temperature in organic solvents. Type of data set: physicochemical. An excerpt: Optionally, water can be added to the suspension earlier than the filtration. Further, this filtration step introduces an additional purification step.

Turning to `CSC(C(N)=O)c1cccc(C(=O)c2ccccc2)c1N` (stereo not drawn) [compound (IV) Form B, 2-amino-3-benzoyl-α-(methylthio)benzeneacetamide], the “crystalline form after one year (XRD and IR)” value in data set [1] (listed as Example 5) is listed as “Form B”. Besides, in data set [2] (acetonitrile, organic solvent or mixture, acetonitrile (reaction mixture solvent), read-out: solubility in acetonitrile), the solubility was roughly 5.9 mg/mL (≈ 19.6 mM). In data set [2] (tetrahydrofuran, room temperature), the solubility in tetrahydrofuran result is recorded as “approx. 33 mg/mL”.
As for `CSC(C(N)=O)c1cccc(C(=O)c2ccccc2)c1N` (stereo not drawn) [compound (IV) Form A, 2-amino-3-benzoyl-α-(methylthio)benzeneacetamide], the “crystalline form after one year (XRD and IR)” value in data set [1] (listed as Example 4) is given as “Form A”. Moreover, the solubility was roughly 50 mg/mL (≈ 166 mM) in data set [2] (1:1 mixture of tetrahydrofuran/water, aqueous with cosolvent or surfactant or cyclodextrin, 1:1 tetrahydrofuran/water, room temperature, read-out: solubility in a 1:1 mixture of tetrahydrofuran/water) and roughly 50 mg/mL (≈ 166 mM) in data set [2] (tetrahydrofuran, organic solvent or mixture, tetrahydrofuran, room temperature, read-out: solubility in tetrahydrofuran).
